Measured values published in PMC4403932 (Journal of Medicinal Chemistry, 2015).
Where two headings read alike, the source gives them in different places.

What was measured:
Format in all cases: binding
[1] = target: T1, CREBBP (Homo sapiens, UniProt Q92793); assay: Protein stability (thermal) shift assay, CREBBP
T1 construct: small thermal shits (1.0–1.3 °C) for the bromodomain of CREBBP; made in house
Protocol: (§1) Thermal melting experiments were carried out using an Mx3005p real time PCR machine (Stratagene). Proteins were buffered in 10 mM HEPES, pH 7.5, 500 mM NaCl and assayed in a 96-well plate at a final concentration of 2 μM in 20 μL volume. Compounds were added at a final concentration of 10 or 100 μM. SYPRO Orange (Molecular Probes) was added as a fluorescence probe at a dilution of 1 in 1000. Excitation and emission filters for the SYPRO-Orange dye were set to 465 and 590 nm, respectively. The temperature was raised with a step of 3 °C per minute from 25 to 96 °C, and fluorescence readings were taken at each interval. The temperature dependence of the fluorescence during the protein denaturation process was approximated by the equation [drawing 1] where ΔuG is the difference in unfolding free energy between the folded and unfolded state, R is the gas constant, and yF and yU are the fluorescence intensity of the probe in the presence of completely folded and unfolded protein, respectively.[65] The baselines of the denatured and native states were approximated by a linear fit. The observed temperature shifts, ΔTm^obs, were recorded as the difference between the transition midpoints of sample and reference wells containing protein without ligand in the same plate and determined by nonlinear least-squares fit. Temperature shifts (ΔTm^obs) for three independent measurements per proteins/compound are summarized in Supporting Information Table S1.

[2] = target: T2, BAZ2B (Homo sapiens, UniProt Q9UIF8); assay: Protein stability (thermal) shift assay, BAZ2B; conditions: compound 10 μM, protein 2 μM; average of triplicate; read-out: ΔTm Shift, BAZ2BA
T2 construct: representative BRDs from other structural subfamilies (family I, PCAF); family III, CREBBP; family IV, BRD9; family V, BAZ2B; made in house
T2 sequence (Q9UIF8 2060-2164 limits assumed): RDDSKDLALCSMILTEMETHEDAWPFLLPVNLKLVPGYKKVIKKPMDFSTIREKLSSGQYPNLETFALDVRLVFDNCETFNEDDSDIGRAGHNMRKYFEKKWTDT
Protocol: as §1

[3] = target: T3, BRDT(1) (Homo sapiens, UniProt Q58F21); assay: Protein stability (thermal) shift assay, BRDT(1); conditions: compound 10 μM, protein 2 μM; average of triplicate
T3 construct: made in house
Protocol: as §1

[4] = target: T4, PCAF (Homo sapiens, UniProt Q92831); assay: Protein stability (thermal) shift assay, PCAF; conditions: compound 10 μM, protein 2 μM; average of triplicate
T4 construct: representative BRDs from other structural subfamilies (family I, PCAF); made in house
T4 sequence (Q92831 723-827 limits assumed): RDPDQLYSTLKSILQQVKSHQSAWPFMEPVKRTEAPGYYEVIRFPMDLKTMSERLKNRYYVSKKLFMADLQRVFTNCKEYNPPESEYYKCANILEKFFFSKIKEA
Protocol: as §1

[5] = target: T5, BRD2(2) (Homo sapiens, UniProt P25440); assay: Protein stability (thermal) shift assay, BRD2(2); conditions: compound 10 μM, protein 2 μM; average of triplicate
T5 construct: made in house
Protocol: as §1

[6] = tested on: human bromodomains (panel); assay: Protein stability (thermal) shift assay, whole panel of human bromodomains; conditions: 10 μM compound
Protocol: as §1

[7] = target: T6, BRDT(2) (Homo sapiens, UniProt Q58F21); assay: Protein stability (thermal) shift assay, BRDT(2)
T6 construct: made in house
Protocol: as §1

[8] = target: T7, BRD4(2) (Homo sapiens, UniProt O60885); assay: Protein stability (thermal) shift assay, BRD4(2); conditions: compound 10 μM, protein 2 μM; average of triplicate
T7 construct: made in house
Protocol: as §1

[9] = target: T8, BRD3(2) (Homo sapiens, UniProt Q15059); assay: Protein stability (thermal) shift assay, BRD3(2); conditions: compound 10 μM, protein 2 μM; average of triplicate
T8 construct: made in house
Protocol: as §1

[10] = target: T9, BRD2(1) (Homo sapiens, UniProt P25440); assay: Protein stability (thermal) shift assay, BRD2(1); conditions: compound 10 μM, protein 2 μM; average of triplicate
T9 construct: Fragments were tested in a thermal shift assay against bromodomains of the BET subfamily; made in house
Protocol: as §1

[11] = target: T10, BRD9 (Homo sapiens, UniProt Q9H8M2); assay: Protein stability (thermal) shift assay, BRD9; conditions: compound 10 μM, protein 2 μM; average of triplicate; read-out: ΔTm Shift, BRD9
T10 construct: made in house
T10 sequence (Q9H8M2 136-240 limits assumed): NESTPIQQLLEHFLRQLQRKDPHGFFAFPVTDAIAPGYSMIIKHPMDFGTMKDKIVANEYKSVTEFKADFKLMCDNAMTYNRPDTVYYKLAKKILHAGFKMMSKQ
Protocol: as §1

[12] = target: T11, PB1(5) (Homo sapiens, UniProt Q86U86); assay: Protein stability (thermal) shift assay, PB1(5); conditions: compound 10 μM, protein 2 μM; average of triplicate
T11 construct: made in house
Protocol: as §1

[13] = target: T12, BRD3(1) (Homo sapiens, UniProt Q15059); assay: Protein stability (thermal) shift assay, BRD3(1); conditions: compound 10 μM, protein 2 μM; average of triplicate
T12 construct: Fragments were tested in a thermal shift assay against bromodomains of the BET subfamily; made in house
Protocol: as §1

[14] = target: T13, BRD4(1) (Homo sapiens, UniProt O60885); assay: Protein stability (thermal) shift assay, BRD4(1); conditions: compound 10 μM, protein 2 μM; average of triplicate; read-out: ΔTm Shift, BRD4(1)
T13 construct: made in house
Protocol: as §1

[15] = target: T10, BRD9; assay: Isothermal titration calorimetry, BRD9
Protocol: Experiments were carried out on an ITC200 titration microcalorimeter from MicroCal, LLC (GE Healthcare) equipped with a Washing module, with a cell volume of 0.2003 mL, and a 40 μL microsyringe. Experiments were carried out at 15 °C while stirring at 1000 rpm, in ITC buffer (50 mM HEPES, pH 7.5 (at 25 °C), 150 mM NaCl). The microsyringe was loaded with a solution of the protein sample (300−740 μM protein for BRD9 and BRD4(1), respectively, in ITC buffer) and was carefully inserted into the calorimetric cell which was filled with an amount of the ligand (0.2 mL, 20–25 μM in ITC buffer). The system was first allowed to equilibrate until the cell temperature reached 15 °C, and an additional delay of 60 s was applied. All titrations were conducted using an initial control injection of 0.3 μL followed by 38 identical injections of 1 μL with a duration of 2 s (per injection) and a spacing of 120 s between injections. The titration experiments were designed in such a fashion as to ensure complete saturation of the proteins before the final injection. The heat of dilution for the proteins was independent of their concentration and corresponded to the heat observed from the last injection, following saturation of ligand binding, thus facilitating the estimation of the baseline of each titration from the last injection. The collected data were corrected for protein heats of dilution (measured on separate experiments by titrating the proteins into ITC buffer) and deconvoluted using the MicroCal Origin software supplied with the instrument to yield enthalpies of binding (ΔH) and binding constants (KB) in the same fashion as that previously described in detail by Wiseman and co-workers.[66] Thermodynamic parameters were calculated using the basic equation of thermodynamics (ΔG = ΔH – TΔS = −RT ln KB, where ΔG, ΔH, and ΔS are the changes in free energy, enthalpy, and entropy of binding, respectively). In all cases a single binding site model was employed, supplied with the MicroCal Origin software package.

[16] = compound 10 μM, protein 2 μM, average of triplicate, read-out: ΔTm Shift, CREBBP
[17] = compound 10 μM, protein 2 μM, average of triplicate, read-out: ΔTm Shift, BRDT(2)
[18] = thermal shift, 10 μM compound, 2 μM protein, read-out: ΔTm

T5 sequence (P25440 344-453 limits assumed): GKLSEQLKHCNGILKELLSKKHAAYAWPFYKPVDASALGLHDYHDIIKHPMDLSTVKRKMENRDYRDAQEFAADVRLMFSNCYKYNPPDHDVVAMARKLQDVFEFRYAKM
T1 sequence (Q92793 1085-1192 limits assumed): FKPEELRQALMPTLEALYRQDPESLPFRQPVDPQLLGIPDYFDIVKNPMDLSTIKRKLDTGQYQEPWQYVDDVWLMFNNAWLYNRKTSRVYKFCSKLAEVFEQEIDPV
T12 sequence (Q15059 34-140 limits assumed): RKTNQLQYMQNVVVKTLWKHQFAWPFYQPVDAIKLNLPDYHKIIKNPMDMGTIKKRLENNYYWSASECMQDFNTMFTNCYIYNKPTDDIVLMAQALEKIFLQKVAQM
T9 sequence (P25440 74-180 limits assumed): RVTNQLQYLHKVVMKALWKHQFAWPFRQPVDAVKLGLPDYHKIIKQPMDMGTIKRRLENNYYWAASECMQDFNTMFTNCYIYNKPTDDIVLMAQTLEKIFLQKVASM
T8 sequence (Q15059 306-415 limits assumed): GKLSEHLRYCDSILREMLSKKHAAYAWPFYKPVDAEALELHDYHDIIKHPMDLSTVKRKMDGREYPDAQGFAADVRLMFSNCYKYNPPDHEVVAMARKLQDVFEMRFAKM
T11 sequence (Q86U86 653-763 limits assumed): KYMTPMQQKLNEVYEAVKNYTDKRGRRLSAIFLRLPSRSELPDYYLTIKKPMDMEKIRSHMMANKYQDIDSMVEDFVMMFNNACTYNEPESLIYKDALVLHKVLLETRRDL

Structure (SMILES)	ΔTm at 10 µM [1, 16]	ΔTm at 10 µM [2]	ΔTm at 10 µM [3]	ΔTm at 10 µM [4]	ΔTm at 10 µM [5]	binding to the bromodomain panel in the ΔTm assay (in words) [6]	ΔTm at 10 µM [7, 17]	ΔTm at 10 µM [8]	ΔTm at 10 µM [9]	ΔTm at 10 µM [10]	ΔTm at 10 µM [11]	ΔTm at 10 µM [12]	ΔTm at 10 µM [13]	ΔTm at 10 µM [14]	further results
COc1ccc(F)cc1-c1nc(O)nc2[nH]cnc12 [Compound 8d, 6-(5-Fluoro-2-methoxyphenyl)-2-hydroxy-9H-purine]	0.34 °C	0.277 °C	0.9 °C	0.535 °C	0.5 °C	lost affinity across the panel	0.368 °C	0.7 °C	0.187 °C	1 °C	-0.8 °C	0.564 °C	0.9 °C	0.9 °C	–
COc1ccc(Br)cc1-c1nc(Cl)nc2[nH]cnc12 [Compound 8a, 6-(5-Bromo-2-methoxyphenyl)-2-chloro-9H-purine]	2.5 °C	-0.7 °C	-0.541 °C	-0.4 °C	-0.564 °C	loss of affinity toward all BRDs	-0.164 °C	0.3 °C	-0.00857 °C	0.8 °C	0.9 °C	1.3 °C	1 °C	1.3 °C	Kd ([15]; ITC, 50 mM HEPES pH 7.5, 150 mM NaCl, 15 °C, reverse titration, triplicate, read-out: KD): 7.87 ± 0.258 µM; TΔS ([15]; ITC, 15 °C): –1.57 kcal/mol; ΔG ([15]; ITC, 15 °C): –6.73 kcal/mol; N (stoichiometry) ([15]; ITC, 15 °C, reverse titration): 1.06 ± 0.014; ΔHobs ([15]; ITC, 15 °C, reverse titration): –8.30 ± 0.15 kcal/mol; Kd ([15]; ITC, read-out: dissociation constant): 7.9 µM; LE (ligand efficiency) ([15]; LE = ΔG/N, N number of non-hydrogen atoms): 0.35
COc1ccc(Br)cc1-c1nc(N)nc2c1ncn2CC(C)=O [Compound 8c, 2-Amino-6-(5-bromo-2-methoxyphenyl)-9-(2-oxopropyl)-purine]	-0.07 °C	-0.06 °C	0.151 °C	-0.6 °C	0.0227 °C	could not be tolerated	0.571 °C	-0.431 °C	0.535 °C	0.0207 °C	-0.109 °C	0.243 °C	0.275 °C	0.24 °C	–
COc1ccc(Br)cc1-c1nc(O)nc2[nH]cnc12 [Compound 8f, 6-(5-Bromo-2-methoxyphenyl)-2-hydroxy-9H-purine]	0.6 °C	0.563 °C	0.653 °C	0.378 °C	0.5 °C	lost affinity across the panel	1 °C	0.7 °C	0.853 °C	1 °C	-0.66 °C	0.8 °C	0.55 °C	1.2 °C	–
Cn1cnc2c(-c3ccc(Oc4ccccc4)cc3)nc(N)nc21 [Compound 3e, 2-Amino-6-(4-phenoxyphenyl)-9-methylpurine]	1.3 °C	0.6 °C	0.6 °C	1 °C	0.463 °C	very weak or no binding	1.2 °C	0.8 °C	0.8 °C	0.32 °C	0.257 °C	0.8 °C	0.743 °C	1 °C	–

Continued, in another order:

ΔTm at 10 µM [1, 16]	ΔTm at 10 µM [2]	ΔTm at 10 µM [3]	ΔTm at 10 µM [4]	ΔTm at 10 µM [5]	binding to the bromodomain panel in the ΔTm assay (in words) [6]	ΔTm at 10 µM [7, 17]	ΔTm at 10 µM [8]	ΔTm at 10 µM [9]	ΔTm at 10 µM [10]	ΔTm at 10 µM [11]	ΔTm at 10 µM [12]	ΔTm at 10 µM [13]	ΔTm at 10 µM [14]	Structure (SMILES)	further results
0.259 °C	0.2 °C	0.2 °C	-1.5 °C	0.9 °C	very low affinity for all bromodomains	–	0.148 °C	0.341 °C	0.0729 °C	0.8 °C	0.0705 °C	0.2 °C	0.0286 °C	COc1ccc(F)cc1-c1ncnc2[nH]c(C)nc12 [Compound 9b, 6-(5-Fluoro-2-methoxyphenyl)-8-methyl-9H-purine]	ΔTm at 10 µM [7, 18]: 2.9 °C
1.1 °C	-1.3 °C	-0.7 °C	-1.1 °C	-0.5 °C	very weak or no binding	-2.5 °C	-3.8 °C	-0.7 °C	-1 °C	-0.32 °C	-0.0233 °C	-1 °C	-0.7 °C	COc1ccc(-c2nc(N)nc3c2ncn3C)cc1 [Compound 3c, 2-Amino-6-(4-methoxyphenyl)-9-methylpurine]	–
0.9 °C	0.6 °C	0.273 °C	0.143 °C	0.6 °C	very weak or no binding	-0.163 °C	0.2 °C	0.223 °C	-0.15 °C	–	0.5 °C	-0.0167 °C	0.177 °C	Cn1cnc2c(-c3cccc(OCc4ccc(Cl)cc4)c3)nc(N)nc21 [Compound 4e, 2-Amino-6-(3-(4′-chlorobenzyloxy)phenyl)-9-methylpurine]	ΔTm at 10 µM [1, 18]: 1 to 1.3 °C
0.74 °C	0.6 °C	0.4 °C	0.9 °C	0.6 °C	completely abolished bromodomain binding	0.0167 °C	0.337 °C	0.467 °C	0.163 °C	–	0.7 °C	0.147 °C	0.323 °C	COc1ccc(Br)cc1-c1nc(N)nc2c1ncn2C [Compound 8b, 2-Amino-6-(5-bromo-2-methoxyphenyl)-9-methylpurine]	KD ([15]; ITC, 50 mM HEPES pH 7.5, 150 mM NaCl, 15 °C, reverse titration, triplicate): no binding/weak
